For orientation: IC50 means the midpoint of a concentration-inhibition curve. What is called Ki is the dissociation constant of the complex between target and ligand, obtained from inhibition or displacement. High values mean lower affinity, low ones higher affinity.

Assay [1] concerns the target T1, Carbonic anhydrase 1 (Homo sapiens, UniProt P00915). The assay is described as follows: Inhibition of human carbonic anhydrase 1 esterase activity by spectrophotometry.
Assay [2] addresses T1, Carbonic anhydrase 1. In words: Inhibition of human carbonic anhydrase 1 esterase activity by noncompetitive Lineweaver-Burke plot.
Assay [3] addresses T1, Carbonic anhydrase 1. In words: Inhibition of human carbonic anhydrase 1 esterase activity by uncompetitive Lineweaver-Burke plot.
Assay [4] deals with T2, Carbonic anhydrase 2 (Homo sapiens, UniProt P00918). The assay is described as follows: Inhibition of human carbonic anhydrase 2 esterase activity by competitive Lineweaver-Burke plot.
Assay [5] deals with T2, Carbonic anhydrase 2. In words: Inhibition of human carbonic anhydrase 2 esterase activity by spectrophotometry.
Assay [6] concerns the target T2, Carbonic anhydrase 2. In words: Inhibition of human carbonic anhydrase 2 esterase activity by non-competitive Lineweaver-Burke plot.
The target of assay [7] is T2, Carbonic anhydrase 2. The assay is described as follows: Inhibition of human carbonic anhydrase 2 esterase activity by uncompetitive Lineweaver-Burke plot.
Assay [8] addresses T1, Carbonic anhydrase 1. The assay is described as follows: Inhibition of human carbonic anhydrase 1 esterase activity by competitive Lineweaver-Burke plot.

T1 sequence (P00915 whole entry): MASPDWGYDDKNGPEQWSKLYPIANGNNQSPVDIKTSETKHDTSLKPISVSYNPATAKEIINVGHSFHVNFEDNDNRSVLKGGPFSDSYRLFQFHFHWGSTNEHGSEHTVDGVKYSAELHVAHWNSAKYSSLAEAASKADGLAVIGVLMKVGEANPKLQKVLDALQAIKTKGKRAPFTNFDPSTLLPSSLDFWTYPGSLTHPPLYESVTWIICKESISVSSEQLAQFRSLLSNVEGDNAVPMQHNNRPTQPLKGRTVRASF

`O=C(O)c1c(O)cc([N+](=O)[O-])cc1[N+](=O)[O-]` yielded a 50% inhibitory concentration (IC50) in assay [1] of 7.64 µM. For the same molecule, the affinity in assay [2], expressed as Ki, was 14.8 µM.
Take `O=C(O)c1ccc(S(=O)(=O)O)cc1O`: the Ki came to 480 µM in assay [3] and 1060 µM in assay [4]. The 50% inhibitory concentration (IC50) amounted to 290 µM in assay [1] and 720 µM in assay [5].
`O=C(O)c1cc(Cl)ccc1O` [5-CHLOROSALICYLIC ACID]: affinity in assay [3] was put at a Ki of 4.16 µM. The same molecule yielded a half-maximal inhibitory concentration (IC50) in assay [1] of 4.07 µM.
As to `Nc1ccc(C(=O)O)c(O)c1` [AMINOSALICYLIC ACID], the figures for the half-maximal inhibitory concentration (IC50) in assay [1] and in assay [5] were 130 µM and 750 µM, respectively. The Ki was determined as 240 µM in assay [2] and 1230 µM in assay [6].
Molecule `CC(=O)Oc1ccccc1C(=O)O` [ASPIRIN] returned an IC50 in assay [1] of 2710 µM. In assay [2], this molecule showed a Ki of 7530 µM.
The matching figures for `O=C(O)c1cc(-c2ccc(F)cc2F)ccc1O` [DIFLUNISAL]: 3.38 µM and 8.45 µM.
Regarding `Cc1cccc(C(=O)O)c1O` [HYDROXYTOLUIC ACID], the IC50 was found to be 3070 µM in assay [1] and 4700 µM in assay [5]. Besides, the inhibition constant (Ki) worked out at 10600 µM in assay [7] and 11400 µM in assay [2].
In the case of `O=C(O)c1cc(/N=N/c2ccc(S(=O)(=O)Nc3ccccn3)cc2)ccc1O` [SULFASALAZINE], the values for the IC50 in assay [1] and in assay [5] were 3.04 µM and 4.49 µM, respectively. The figures for the Ki in assay [2] and in assay [6] were 6.87 µM and 8.72 µM, respectively.
Take `O=C(O)c1cc(S(=O)(=O)O)ccc1O` [SULFOSALICYLIC]: the half-maximal inhibitory concentration (IC50) came to 420 µM in assay [1] and 290 µM in assay [5]. For the same molecule, the Ki in assay [8] came out at 770 µM; in assay [6], 1920 µM.
